Experimental findings from ChEMBL document CHEMBL5500361, “Probing benzenesulfonamide-thiazolidinone hybrids as multitarget directed ligands for efficient control of type 2 diabetes mellitus through targeting the enzymes: α-glucosidase and carbonic anhydrase II” (Eur J Med Chem, 2024) are described below.

Some targets named below: Carbonic anhydrase 12 (Homo sapiens, UniProt O43570); Carbonic anhydrase 1 (Homo sapiens, UniProt P00915); Carbonic anhydrase 9 (Homo sapiens, UniProt Q16790).
In assay [1] the target is T1, Carbonic anhydrase 2 (Homo sapiens, UniProt P00918).
Description: Binding affinity to human carbonic anhydrase 2 assessed as inhibition constant incubated for 15 mins by phenol red based stopped-flow CO2 hydration assay
Assay [2] deals with T1, Carbonic anhydrase 2. The source holds these as a separate data set.
Description: Binding affinity to human recombinant carbonic anhydrase 2 assessed as inhibition constant incubated for 15 mins by phenol red based stopped-flow CO2 hydration assay
For assay [3], the system named is MCF7. The assay is described as follows: Antiproliferative activity against human MCF7 cells assessed as inhibition of cell growth under normoxia condition by MTT colorimetric assay.
Assay [4] relates to MCF7. Description: Antiproliferative activity against human MCF7 cells assessed as inhibition of cell growth under hypoxia condition by MTT colorimetric assay.

Chain of Carbonic anhydrase 12 (O43570 whole entry): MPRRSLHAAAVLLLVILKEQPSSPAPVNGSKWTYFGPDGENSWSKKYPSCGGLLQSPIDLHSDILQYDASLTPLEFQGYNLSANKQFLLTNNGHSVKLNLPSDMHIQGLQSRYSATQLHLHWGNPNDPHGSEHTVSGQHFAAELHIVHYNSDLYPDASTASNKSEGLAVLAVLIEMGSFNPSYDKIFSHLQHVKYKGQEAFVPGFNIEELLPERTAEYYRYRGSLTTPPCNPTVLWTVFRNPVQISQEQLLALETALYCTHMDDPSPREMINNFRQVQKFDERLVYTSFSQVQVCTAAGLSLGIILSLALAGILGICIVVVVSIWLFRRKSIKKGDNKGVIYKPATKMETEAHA
Chain of Carbonic anhydrase 1 (P00915 whole entry): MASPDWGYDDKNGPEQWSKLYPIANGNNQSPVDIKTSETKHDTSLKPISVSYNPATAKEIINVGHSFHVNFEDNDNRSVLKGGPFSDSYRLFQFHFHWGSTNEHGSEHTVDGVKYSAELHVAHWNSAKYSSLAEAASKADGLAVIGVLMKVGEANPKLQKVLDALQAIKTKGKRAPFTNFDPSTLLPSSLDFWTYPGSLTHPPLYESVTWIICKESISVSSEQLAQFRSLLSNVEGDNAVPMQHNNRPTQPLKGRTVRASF
Description for Carbonic anhydrase 12: Binding affinity to human carbonic anhydrase 12 assessed as inhibition constant incubated for 15 mins by phenol red based stopped-flow CO2 hydration assay
Description for Carbonic anhydrase 9: Binding affinity to human carbonic anhydrase 9 assessed as inhibition constant incubated for 15 mins by phenol red based stopped-flow CO2 hydration assay

Consider `CCN1C(=O)/C(=C\c2ccc(Cl)cc2)S/C1=N/c1ccc(S(N)(=O)=O)cc1`, for which the values for the inhibition constant (Ki) at Carbonic anhydrase 12 and on Carbonic anhydrase 2 [1] were 36.3 nM and 30.5 nM, respectively.

`COc1ccc(/C=C2/S/C(=N/c3ccc(S(N)(=O)=O)cc3)NC2=O)cc1`: the Ki on Carbonic anhydrase 12 was 77.6 nM; at Carbonic anhydrase 2 [1], 24.3 nM.

For the compound `COc1ccc(/C=C2/S/C(=N/c3ccc(S(N)(=O)=O)cc3)N(C)C2=O)cc1`, the results for the Ki at Carbonic anhydrase 12 and at Carbonic anhydrase 2 [1] were 66.6 nM and 54.6 nM, respectively.

Take `NS(=O)(=O)c1ccc(N2C(=O)CS/C2=N\C(=O)c2ccccc2)cc1`: on Carbonic anhydrase 2 [2], the Ki came to 0.41 nM.

Consider `NS(=O)(=O)c1ccc(/N=C2\NC(=O)/C(=C3\C(=O)Nc4ccccc43)S2)cc1`, for which the inhibitory constant (Ki) at Carbonic anhydrase 12 is 33.5 nM; at Carbonic anhydrase 1, 631 nM; at Carbonic anhydrase 2 [1], 23 nM; at Carbonic anhydrase 9 it was 47 nM.

`CCN1C(=O)/C(=C\c2ccc(OC)cc2)S/C1=N/c1ccc(S(N)(=O)=O)cc1`: at Carbonic anhydrase 12, the Ki is 56.6 nM.

Turning to `NS(=O)(=O)c1ccc(/N=C2\NC(=O)/C(=C\c3ccc(Cl)cc3)S2)cc1`, the affinity on Carbonic anhydrase 2 [1] corresponds to a Ki of 95.7 nM.

Consider `CCN1C(=O)/C(=C\c2ccccc2)S/C1=N/c1ccc(S(N)(=O)=O)cc1`, for which the Ki stood at 96.3 nM at Carbonic anhydrase 12 and 77.2 nM on Carbonic anhydrase 2 [1].

Turning to `NS(=O)(=O)c1ccc(/N=C2\NC(=O)/C(=C\c3ccc(F)cc3)S2)cc1`, the Ki at Carbonic anhydrase 2 [1] was determined as 7 nM.

Take `CCN1C(=O)/C(=C2\C(=O)Nc3ccccc32)S/C1=N/c1ccc(S(N)(=O)=O)cc1`: the Ki at Carbonic anhydrase 12 turned out to be 9.1 nM; at Carbonic anhydrase 2 [1], 105 nM.

Take `CN1C(=O)/C(=C\c2ccc(Cl)cc2)S/C1=N/c1ccc(S(N)(=O)=O)cc1`: the Ki at Carbonic anhydrase 12 turned out to be 48.8 nM.

As to `CN1C(=O)/C(=C\c2ccccc2)S/C1=N/c1ccc(S(N)(=O)=O)cc1`, the Ki on Carbonic anhydrase 12 worked out at 74.5 nM; on Carbonic anhydrase 2 [1] it was 44.5 nM.

With `CCN1C(=O)/C(=C\c2ccc(F)cc2)S/C1=N/c1ccc(S(N)(=O)=O)cc1`, the Ki at Carbonic anhydrase 12 was 11 nM; at Carbonic anhydrase 1, 4420 nM; at Carbonic anhydrase 2 [1], 85 nM; at Carbonic anhydrase 9, 33.9 nM. Also, the IC50 in the assay with MCF7 [3] amounted to 21600 nM; in the assay on MCF7 [4], 34000 nM.

Take `CN1C(=O)/C(=C\c2ccc(F)cc2)S/C1=N/c1ccc(S(N)(=O)=O)cc1`: the Ki at Carbonic anhydrase 12 was found to be 37 nM; on Carbonic anhydrase 2 [1] it was 30.7 nM.

Turning to `NS(=O)(=O)c1ccc(/N=C2\NC(=O)/C(=C\c3ccccc3)S2)cc1`, the Ki is 120 nM on Carbonic anhydrase 12 and 90.5 nM at Carbonic anhydrase 2 [1].
